27 compounds from the supplement of paper PMC12137928 can be followed below.

In the experiment the test system is HCT116. The note with it: 72 h. The procedure, abridged: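 Each well of the 1536-well plates received 250 HCT116 cells, which attached over 5 h. Luminescence was measured with CellTiter-Glo, scaled with vehicle as 0% and positive control as -100%, and pattern-corrected. A four-parameter Hill fit yielded IC50 and maximal efficacy.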

Structures can show the parent of a compound that is named as a salt.

The compound `O=C1N=C(N2CCOCC2)CN1c1ccc(Cl)cc1` [AWD 131-138] had an IC50 cell viability (ICRF193 0 nM) of more than 45.8 µM and an IC50 cell viability (ICRF193 200 nM) of more than 45.8 µM.

Compound `CC1(C)S[C@@H]2[C@H](NC(=O)[C@H](NC(=O)N3CCNC3=O)c3ccccc3)C(=O)N2[C@H]1C(=O)O` [AZLOCILLIN SODIUM] returned an IC50 cell viability (ICRF193 0 nM) of more than 45.8 µM and an IC50 cell viability (ICRF193 200 nM) of more than 45.8 µM.

For the compound `CC(=O)O[C@H]1CC[C@@]2(C)C(=CC[C@@H]3[C@@H]2CC[C@]2(C)C(c4cccnc4)=CC[C@@H]32)C1` [Abiraterone acetate], the IC50 cell viability runs as follows: (ICRF193 0 nM) more than 45.8 µM; (ICRF193 200 nM) more than 45.8 µM.

Take `NC(=O)c1ncn([C@@H]2O[C@H](CO)[C@@H](O)[C@H]2O)c1N` [Acadesine]: the IC50 cell viability runs as follows: (ICRF193 0 nM) more than 45.8 µM; (ICRF193 200 nM) more than 45.8 µM.

Turning to `CC(=O)NCCCS(=O)(=O)O` [Acamprosate Calcium], the IC50 cell viability is more than 45.8 µM (ICRF193 0 nM) and more than 45.8 µM (ICRF193 200 nM).

`C[C@H]1O[C@H](O[C@H]2[C@H](O)[C@@H](O)[C@@H](O[C@H]3[C@H](O)[C@@H](O)C(O)O[C@@H]3CO)O[C@@H]2CO)[C@H](O)[C@@H](O)[C@@H]1N[C@H]1C=C(CO)[C@@H](O)[C@H](O)[C@H]1O` (some centres undefined) [Acarbose]: the IC50 cell viability was more than 45.8 µM (ICRF193 0 nM) and more than 45.8 µM (ICRF193 200 nM).

As for `CCCC(=O)Nc1ccc(OCC(O)CNC(C)C)c(C(C)=O)c1` (centres undefined) [Acebutolol hydrochloride], the IC50 cell viability (ICRF193 0 nM) was more than 45.8 µM and the IC50 cell viability (ICRF193 200 nM) is more than 45.8 µM.

With `O=C(O)COC(=O)Cc1ccccc1Nc1c(Cl)cccc1Cl` [Aceclofenac], the IC50 cell viability runs as follows: (ICRF193 0 nM) more than 45.8 µM; (ICRF193 200 nM) more than 45.8 µM.

For the compound `CC(=O)O[C@@H]1C(=O)O[C@H]2[C@@H]1OC(=O)[C@@H]2OC(C)=O` [Aceglatone], the IC50 cell viability was more than 45.8 µM (ICRF193 0 nM) and more than 45.8 µM (ICRF193 200 nM).

For the compound `COc1ccc2c(c1)c(CC(=O)OCC(=O)O)c(C)n2C(=O)c1ccc(Cl)cc1` [Acemetacin], the IC50 cell viability is more than 45.8 µM (ICRF193 0 nM) and more than 45.8 µM (ICRF193 200 nM).

Take `CC(=O)CC(c1ccc([N+](=O)[O-])cc1)c1c(O)c2ccccc2oc1=O` (centres undefined) [Acenocoumarol]: the IC50 cell viability runs as follows: (ICRF193 0 nM) more than 45.8 µM; (ICRF193 200 nM) more than 45.8 µM.

As to `CC(=O)Nc1ccc(O)cc1` [Acetaminophen], the IC50 cell viability was more than 45.8 µM (ICRF193 0 nM) and more than 45.8 µM (ICRF193 200 nM).

On to `CC(=O)Nc1ccccc1` [Acetanilide], for which the IC50 cell viability (ICRF193 0 nM) was more than 45.8 µM and the IC50 cell viability (ICRF193 200 nM) was more than 45.8 µM.

Regarding `CC(=O)Nc1cc([As](=O)(O)O)ccc1O` [Acetarsol], the IC50 cell viability was more than 45.8 µM (ICRF193 0 nM) and more than 45.8 µM (ICRF193 200 nM).

For `CC(=O)Nc1nnc(S(N)(=O)=O)s1` [Acetazolamide], the IC50 cell viability was more than 45.8 µM (ICRF193 0 nM) and more than 45.8 µM (ICRF193 200 nM).

In the case of `CC(=O)c1ccc(S(=O)(=O)NC(=O)NC2CCCCC2)cc1` [Acetohexamide], the IC50 cell viability runs as follows: (ICRF193 0 nM) more than 45.8 µM; (ICRF193 200 nM) more than 45.8 µM.

`CC(=O)c1ccc2c(c1)N(CCCN1CCN(CCO)CC1)c1ccccc1S2` [Acetophenazine Maleate]: the IC50 cell viability is, setting by setting: (ICRF193 0 nM) more than 45.8 µM; (ICRF193 200 nM) more than 45.8 µM.

As to `CC(=O)c1ccc2c(c1)N(CCCN(C)C)c1ccccc1S2` [Acetopromazine maleate], the IC50 cell viability is more than 45.8 µM (ICRF193 0 nM) and more than 45.8 µM (ICRF193 200 nM).

Consider `CC(=O)Nc1c(I)cc(I)c(C(=O)O)c1I` [Acetrizoic acid], for which the IC50 cell viability is more than 45.8 µM (ICRF193 0 nM) and more than 45.8 µM (ICRF193 200 nM).

Turning to `CC(=O)OCC[N+](C)(C)C` [Acetylcholine chloride], the IC50 cell viability is more than 45.8 µM (ICRF193 0 nM) and more than 45.8 µM (ICRF193 200 nM).

On to `CC(=O)N[C@@H](CS)C(=O)O` [Acetylcysteine], for which the IC50 cell viability (ICRF193 0 nM) was more than 45.8 µM and the IC50 cell viability (ICRF193 200 nM) was more than 45.8 µM.

Turning to `CCC(C(=O)NC(=O)NC(C)=O)c1ccccc1` (centres undefined) [Acetylpheneturide], the IC50 cell viability is, setting by setting: (ICRF193 0 nM) more than 45.8 µM; (ICRF193 200 nM) more than 45.8 µM.

As to `Nc1nc2c(ncn2COCCO)c(=O)[nH]1` [Aciclovir], the IC50 cell viability runs as follows: (ICRF193 0 nM) more than 45.8 µM; (ICRF193 200 nM) more than 45.8 µM.

`O=C(O)C(=O)Nc1cccc(-c2nnn[nH]2)c1` [Acitazanolast]: the IC50 cell viability is more than 45.8 µM (ICRF193 0 nM) and more than 45.8 µM (ICRF193 200 nM).

Take `COc1cc(C)c(/C=C/C(C)=C/C=C/C(C)=C/C(=O)O)c(C)c1C` [Acitretin]: the IC50 cell viability is more than 45.8 µM (ICRF193 0 nM) and more than 45.8 µM (ICRF193 200 nM).

In the case of `O=C(O[C@H]1C[N+]2(CCCOc3ccccc3)CCC1CC2)C(O)(c1cccs1)c1cccs1` [Aclidinium (Bromide)], the IC50 cell viability is, setting by setting: (ICRF193 0 nM) more than 45.8 µM; (ICRF193 200 nM) more than 45.8 µM.

Turning to `CCN1C[C@]2(COC)[C@H](O)C[C@H](OC)[C@@]34[C@@H]5C[C@@]6(O)[C@H](OC(=O)c7ccccc7)[C@@H]5[C@@](OC(C)=O)([C@@H]([C@H](OC)[C@H]23)[C@@H]14)[C@@H](O)[C@@H]6OC` [Aconitine], the IC50 cell viability by setting is: (ICRF193 0 nM) more than 45.8 µM; (ICRF193 200 nM) more than 45.8 µM.
